The structures appear in SMILES notation.

The text below walks through data of patent US9345722B2, “Pharmaceutical formulations for the treatment of alzheimer's disease” (EMISPHERE TECHNOLOGIES, INC., priority 2006, dated 2016).

The conditions of data set [1]: investigational studies, background; cited from earlier work.
The nature of data set [2]: Oral delivery of CPHPC in rats, serum CPHPC concentrations. The data set is classed as in vivo. As for the experimental part: One group of rats were dosed by oral gavage a solution containing 200 mg/kg SNAC and 10 mg/kg CPHPC (Group 1). The dosing volume was 1 mL/kg. Two groups of rats also received, respectively, control arms of 10 mg/kg CPHPC alone via oral gavage (Group 2) and 0.2 mg/kg of CPHPC via IV (Group 3).
Serum CPHPC concentrations […]) were measured over 40 minutes.

The nature of data set [3]: CPHPC added to solvents to the point of saturation (donor solutions). The data set is classed as physicochemical. The conditions noted are these: ethanolamine as solvent. The method, then:
CPHC was added to the solvents listed in Table 1 below to the point of saturation: […]

Turning to `O=C(O)[C@H]1CCCN1C(=O)CCCCC(=O)N1CCC[C@@H]1C(=O)O` [CPHPC, R-1-(6-(R-2-carboxy-pyrrolidin-1-yl)-6-oxo-hexanoyl)pyrrolidine-2-carboxylic acid], the oral bioavailability result in data set [1] is “poor oral bioavailability”. Besides, the Serum CPHPC concentration in data set [2] (Group 1: 200 mg/kg SNAC and 10 mg/kg CPHPC via PO, 0 min.) worked out at 0 ng/mL; in data set [2] (Group 1: 200 mg/kg SNAC and 10 mg/kg CPHPC via PO, 5 min.) it was 2960 ± 1210 ng/mL; in data set [2] (Group 1: 200 mg/kg SNAC and 10 mg/kg CPHPC via PO, 10 min.), 5480 ± 526 ng/mL; in data set [2] (Group 1: 200 mg/kg SNAC and 10 mg/kg CPHPC via PO, 20 min.), 2800 ± 400 ng/mL; in data set [2] (Group 1: 200 mg/kg SNAC and 10 mg/kg CPHPC via PO, 40 min.), 1440 ± 219 ng/mL; in data set [2] (Group 2: 10 mg/kg CPHPC alone via PO, 0 min.), 0 ng/mL. Further, the Serum CPHPC concentration in data set [2] (Group 2: 10 mg/kg CPHPC alone via PO, 5 min.) is 1060 ± 107 ng/mL; in data set [2] (Group 2: 10 mg/kg CPHPC alone via PO, 10 min.) it was 1420 ± 171 ng/mL; in data set [2] (Group 2: 10 mg/kg CPHPC alone via PO, 20 min.), 667 ± 97.1 ng/mL; in data set [2] (Group 2: 10 mg/kg CPHPC alone via PO, 40 min.), 175 ± 15 ng/mL; in data set [2] (Group 3: 0.2 mg/kg CPHPC via IV, 0 min.), 0 ng/mL; in data set [2] (Group 3: 0.2 mg/kg CPHPC via IV, 5 min.), 223 ± 19.5 ng/mL. The Serum CPHPC concentration came to 229 ± 44.8 ng/mL in data set [2] (Group 3: 0.2 mg/kg CPHPC via IV, 10 min.); 170 ± 26.2 ng/mL in data set [2] (Group 3: 0.2 mg/kg CPHPC via IV, 20 min.); 65.4 ± 25.7 ng/mL in data set [2] (Group 3: 0.2 mg/kg CPHPC via IV, 40 min.). Further, the “Solubility of CPHPC in ethanolamine compared with the other solvents” value in data set [3] is “much more soluble in ethanolamine”.
